In patent US10525055B2, “Opioid receptor antagonist prodrugs” (Nirsum Laboratories, Inc., priority 2017, dated 2020):

Columns and labels:
[1] = Solubility determination in oil (cottonseed oil, sesame oil); conditions: Sesame oil; volumetric flask method; heating 60 °C, obs. 25 °C
Experimental: A known amount of test substance (˜40 mg) was weighed into the vial, 100 μL of oil was added and heated to 60° C. and then system was slurried to reach equilibrium. […] Extra oil was added into the vial once compound precipitated out and then the system was re-equilibrated at 1000 rpm at room temperature (25° C.). Final concentration was determined by HPLC method as described below in Table 6a and 6b.

[2] = Dog pharmacokinetic studies, deep intramuscular; assay type: in vivo, Beagle dogs; conditions: dog IM, 48 mg/kg, Sesame oil + 1% Benzyl Alcohol
Experimental: The purpose of this study is to determine the pharmacokinetics of test compounds in plasma, following deep intramuscular administration to Beagle dogs (n=3, unless otherwise specified).
(§1) The dose formulation (concentration−400 mg base equivalents/ml in sesame oil+1% benzyl alcohol, unless otherwise specified) was administered via deep intramuscularly (unless otherwise specified). The injection vehicle was also dosed via deep intramuscular route (unless otherwise specified) on contralateral site of each animal at study initiation. The animals were sedated with Propofol at 6 mg/kg via IV administration. Following sedation hair was carefully removed from around the injection site and the area gently cleaned. Care will be taken to avoid irritating skin during shaving and cleaning the injection site. Then dogs will be dosed with deep IM administration. At least 2.5 cm depth from the surface into the central aspect of the quadriceps or biceps femoris muscle, by angling the needle toward the femur. If the needle hits the femur, simply draws back slightly and then inject. The dose volume will be determined by the animals' body weight collected on the morning of dosing day. For repeated administration, the injection sites may be rotated to minimize tissue injury.
Blood samples were collected from a peripheral vessel from restrained, non-sedated animals per sampling time point.
Approximately 0.8 mL blood will be collected at each time point.
Each collected blood sample was centrifuged for 4 minutes at 4° C. and 10000 rpm for plasma collection. Plasma was collected and transferred into a pre-labeled PP tube in dry ice at each time point and precipitated immediately using ACN at a ratio of 1:4 (plasma:ACN). Centrifuged again (10 minutes, 12000 rpm) and obtain the supernatant.
After terminal collection, all supernatant was stored at approximately −80° C. F until bioanalysis.
LC-MS/MS methods for the quantitative determination of test compound in biological matrix were developed. […] The sample analysis was performed concurrently with a set of calibration standards and two sets of QC samples using the LC-MS/MS method.
Plasma concentration versus time data was analyzed by non-compartmental approaches using the Phoenix WinNonlin 6.3 software program. Cmax, Tmax, T1/2, AUC(0-t), AUC(0-inf), MRT(0-t), MRT(0-inf) and graphs of plasma concentration versus time profile were prepared.

DOR = target: T1, DOR (Homo sapiens, UniProt P41143); test: Opioid receptor binding assay, DOR ([3H]-DADLE); conditions: for %Inh@MaxDose: DOR
T1 construct: expressed in transfected cells; membranes prepared from them

[3] = Dog clinical observations after intramuscular dosing; assay type: in vivo, Beagle dogs
Experimental: Weight monitoring was done every week.
as §1

T1 sequence (P41143 whole entry): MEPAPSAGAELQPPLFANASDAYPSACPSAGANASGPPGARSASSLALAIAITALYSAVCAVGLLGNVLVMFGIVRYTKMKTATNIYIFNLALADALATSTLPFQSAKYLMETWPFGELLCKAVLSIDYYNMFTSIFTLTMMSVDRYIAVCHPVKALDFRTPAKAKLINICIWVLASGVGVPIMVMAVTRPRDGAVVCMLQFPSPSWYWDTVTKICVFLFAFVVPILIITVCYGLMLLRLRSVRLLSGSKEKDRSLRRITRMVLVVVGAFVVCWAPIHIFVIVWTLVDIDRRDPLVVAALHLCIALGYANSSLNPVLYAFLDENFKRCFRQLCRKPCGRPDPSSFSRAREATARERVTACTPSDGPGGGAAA

SMILES: C=C1CC[C@@]2(O)C3Cc4ccc(OC(=O)OCCCCCCCCCCC)c5c4[C@@]2(CCN3CC2CC2)[C@H]1O5 [Compound 3, (4aS,7aS,12bS)-3-(cyclopropylmethyl)-4a-hydroxy-7-methylene-2,3,4,4a,5,6,7,7a-octahydro-1H-4,12-methanobenzofuro[3,2-e]isoquinolin-9-yl undecyl carbonate]
- Solubility by volumetric flask method: Sesame oil [1]: >400.7 mg/mL
- AUC0-inf (ng · h/mL) prodrug [2]: 360 ng·h/mL
- Half-life t1/2 (hour) prodrug [2]: 63.1 h

SMILES: CCCCCCCCCCCOC(=O)OCOc1ccc2c3c1O[C@H]1C(=O)CC[C@@]4(O)C(C2)N(CC2CC2)CC[C@]314 [Compound 4, (((4aS,7aR,12bS)-3-(cyclopropylmethyl)-4a-hydroxy-7-oxo-2,3,4,4a,5,6,7,7a-octahydro-1H-4,12-methanobenzofuro[3,2-e]isoquinolin-9-yl)oxy)methyl undecyl carbonate]
- IC50 (DOR): > 10 µM
- %Inh@MaxDose (DOR; MaxDose 10000 nM): 43.2%
- Solubility by volumetric flask method: Sesame oil [1]: >400.4 mg/mL
- AUC0-inf (ng · h/mL) prodrug [2]: 829 ng·h/mL

SMILES: C=C1CC[C@@]2(O)C3Cc4ccc(OCOC(=O)OCCCCCCCCCCC)c5c4[C@@]2(CCN3CC2CC2)[C@H]1O5 [Compound 5, (((4aS,7aS,12bS)-3-(cyclopropylmethyl)-4a-hydroxy-7-methylene-2,3,4,4a,5,6,7,7a-octahydro-1H-4,12-methanobenzofuro[3,2-e]isoquinolin-9-yl)oxy)methyl undecyl carbonate]
- Solubility by volumetric flask method: Sesame oil [1]: >400.6 mg/mL
- AUC0-inf (ng · h/mL) prodrug [2]: 3869 ng·h/mL
- Half-life t1/2 (hour) prodrug [2]: 70.9 h
- BT (clinical observations, R-TA) ([3]; dog D1001, 48 mg/kg, 264 hr): BT:38.6 °C
- BT (clinical observations, R-TA) ([3]; dog D1001, 48 mg/kg, 288 hr): BT:38.6 °C
- BT (clinical observations, R-TA) ([3]; dog D1001, 48 mg/kg, 312 hr): BT:38.0 °C
- BT (clinical observations, R-TA) ([3]; dog D1001, 48 mg/kg, 336 hr): BT:38.4 °C
- BT (clinical observations, R-TA) ([3]; dog D1001, 48 mg/kg, 360 hr): BT:38.1 °C
- BT (clinical observations, R-TA) ([3]; dog D1001, 48 mg/kg, 432 hr): BT:38.0 °C
- BT (clinical observations, R-TA) ([3]; dog D1001, 48 mg/kg, 480 hr): BT:38.0 °C
- BT (clinical observations, R-TA) ([3]; dog D1001, 48 mg/kg, 528 hr): BT38.2 °C
- BT (clinical observations, R-TA) ([3]; dog D1001, 48 mg/kg, 552 hr): BT:38.4 °C
- BT (clinical observations, R-TA) ([3]; dog D1001, 48 mg/kg, 576 hr): BT:38.4 °C
- BT (clinical observations, R-TA) ([3]; dog D1001, 48 mg/kg, 600 hr): BT:38.3 °C
- BT (clinical observations, R-TA) ([3]; dog D1001, 48 mg/kg, 624 hr): BT:38.6 °C
- BT (clinical observations, R-TA) ([3]; dog D1001, 48 mg/kg, 648 hr): BT:38.3 °C
- BT (clinical observations, R-TA) ([3]; dog D1001, 48 mg/kg, 672 hr): BT:38.3 °C
- BT (clinical observations, R-TA) ([3]; dog D1001, 48 mg/kg, […]): BT:38.7 °C
- BT (clinical observations, R-TA) ([3]; dog D1002, 48 mg/kg, 264 hr): BT:39.5 °C
- BT (clinical observations, R-TA) ([3]; dog D1002, 48 mg/kg, 288 hr): BT:39.5 °C
- BT (clinical observations, R-TA) ([3]; dog D1002, 48 mg/kg, 312 hr): BT:38.5 °C
- BT (clinical observations, R-TA) ([3]; dog D1002, 48 mg/kg, 336 hr): BT:38.7 °C
- BT (clinical observations, R-TA) ([3]; dog D1002, 48 mg/kg, 360 hr): BT:39.1 °C
- BT (clinical observations, R-TA) ([3]; dog D1002, 48 mg/kg, 432 hr): BT:38.9 °C
- BT (clinical observations, R-TA) ([3]; dog D1002, 48 mg/kg, 456 hr): BT:38.9 °C
- BT (clinical observations, R-TA) ([3]; dog D1002, 48 mg/kg, 480 hr): BT:39.2 °C
- BT (clinical observations, R-TA) ([3]; dog D1002, 48 mg/kg, 504 hr): BT:38.7 °C
- BT (clinical observations, R-TA) ([3]; dog D1002, 48 mg/kg, 528 hr): BT:37.9 °C
- BT (clinical observations, R-TA) ([3]; dog D1002, 48 mg/kg, 552 hr): BT:39.2 °C
- BT (clinical observations, R-TA) ([3]; dog D1002, 48 mg/kg, 576 hr): BT:39.0 °C
- BT (clinical observations, R-TA) ([3]; dog D1002, 48 mg/kg, 600 hr): BT:38.6 °C
- BT (clinical observations, R-TA) ([3]; dog D1002, 48 mg/kg, 624 hr): BT:38.9 °C
- BT (clinical observations, R-TA) ([3]; dog D1002, 48 mg/kg, 648 hr): BT:38.5 °C
- BT (clinical observations, R-TA) ([3]; dog D1002, 48 mg/kg, 672 hr): BT:39.3 °C

SMILES: C=C1CC[C@@]2(O)C3Cc4ccc(OCOC(=O)OCCCCCCCCCCCCCCCC)c5c4[C@@]2(CCN3CC2CC2)[C@H]1O5 [Compound 34, (((4aS,7aS,12bS)-3-(cyclopropylmethyl)-4a-hydroxy-7-methylene-2,3,4,4a,5,6,7,7a-octahydro-1H-4,12-methanobenzofuro[3,2-e]isoquinolin-9-yl)oxy)methyl hexadecyl carbonate]
- %Inh@MaxDose (DOR; MaxDose 10000 nM): 22.7%

SMILES: C=C1CC[C@@]2(O)C3Cc4ccc(OCOC(=O)OCCCCCCCCCC)c5c4[C@@]2(CCN3CC2CC2)[C@H]1O5 [Compound 35, (((4aS,7aS,12bS)-3-(cyclopropylmethyl)-4a-hydroxy-7-methylene-2,3,4,4a,5,6,7,7a-octahydro-1H-4,12-methanobenzofuro[3,2-e]isoquinolin-9-yl)oxy)methyl decyl carbonate]
- Half-life t1/2 (hour) prodrug [2]: 70 h
- Clinical observations, R-TA ([3]; dog D1501, 48 mg/kg, 24 hr): Red spots at groin
- Clinical observations, R-TA ([3]; dog D1501, 48 mg/kg, 48 hr): Red spots at groin
- BT (clinical observations, R-TA) ([3]; dog D1501, 48 mg/kg, 72 hr): at groin/BT: 39.1 °C
- BT (clinical observations, R-TA) ([3]; dog D1501, 48 mg/kg, 96 hr): at groin/BT: 39.0 °C
- BT (clinical observations, R-TA) ([3]; dog D1501, 48 mg/kg, 120 hr): at groin/BT: 39.1 °C
- BT (clinical observations, R-TA) ([3]; dog D1501, 48 mg/kg, 144 hr): groin/BT: 38.7 °C
- BT (clinical observations, R-TA) ([3]; dog D1501, 48 mg/kg, 192 hr): groin/BT: 38.2 °C
- BT (clinical observations, R-TA) ([3]; dog D1501, 48 mg/kg, 216 hr): groin/BT: 38.6 °C
- BT (clinical observations, R-TA) ([3]; dog D1501, 48 mg/kg, 240 hr): groin/BT: 38.2 °C
- BT (clinical observations, R-TA) ([3]; dog D1501, 48 mg/kg, 264 hr): groin/BT: 38.0 °C
- BT (clinical observations, R-TA) ([3]; dog D1501, 48 mg/kg, 288 hr): groin/BT: 38.4 °C
- BT (clinical observations, R-TA) ([3]; dog D1501, 48 mg/kg, […]): groin/BT: 38.9 °C
- BT (clinical observations, R-TA) ([3]; dog D1502 (third dog column), 48 mg/kg, 72 hr): leg/BT: 39.3 °C
- BT (clinical observations, R-TA) ([3]; dog D1502 (third dog column), 48 mg/kg, 96 hr): leg/BT: 39.3 °C
- BT (clinical observations, R-TA) ([3]; dog D1502 (third dog column), 48 mg/kg, 120 hr): BT: 39.4 °C
- BT (clinical observations, R-TA) ([3]; dog D1502 (third dog column), 48 mg/kg, 144 hr): BT: 39.0 °C
- BT (clinical observations, R-TA) ([3]; dog D1502 (third dog column), 48 mg/kg, 192 hr): at calf/BT: 39.2 °C
- BT (clinical observations, R-TA) ([3]; dog D1502 (third dog column), 48 mg/kg, 216 hr): calf/BT: 39.2 °C
- BT (clinical observations, R-TA) ([3]; dog D1502 (third dog column), 48 mg/kg, 240 hr): calf/BT: 38.9 °C
- BT (clinical observations, R-TA) ([3]; dog D1502 (third dog column), 48 mg/kg, 264 hr): 6 * 6 cm/BT: 38.7 °C
- BT (clinical observations, R-TA) ([3]; dog D1502 (third dog column), 48 mg/kg, 288 hr): 6 * 6 cm/BT: 38.7 °C
- BT (clinical observations, R-TA) ([3]; dog D1502 (third dog column), 48 mg/kg, […]): at calf/BT: 39.3 °C
- BT (clinical observations, R-TA) ([3]; dog D1502, 48 mg/kg, 72 hr): red/BT: 39.6 °C
- BT (clinical observations, R-TA) ([3]; dog D1502, 48 mg/kg, 96 hr): red/BT: 38.9 °C
- BT (clinical observations, R-TA) ([3]; dog D1502, 48 mg/kg, 120 hr): red/BT: 39.6 °C
- BT (clinical observations, R-TA) ([3]; dog D1502, 48 mg/kg, 144 hr): redness/BT: 38.9 °C
- BT (clinical observations, R-TA) ([3]; dog D1502, 48 mg/kg, 192 hr): BT: 38.7 °C
- BT (clinical observations, R-TA) ([3]; dog D1502, 48 mg/kg, 216 hr): BT: 39.2 °C
- BT (clinical observations, R-TA) ([3]; dog D1502, 48 mg/kg, 240 hr): BT: 38.6 °C
- BT (clinical observations, R-TA) ([3]; dog D1502, 48 mg/kg, 264 hr): BT: 38.4 °C
- BT (clinical observations, R-TA) ([3]; dog D1502, 48 mg/kg, 288 hr): BT: 38.6 °C
- BT (clinical observations, R-TA) ([3]; dog D1502, 48 mg/kg, […]): redness/BT: 39.9 °C

SMILES: Oc1ccc2c3c1O[C@H]1c4[nH]c5ccccc5c4C[C@@]4(O)[C@@H](C2)N(CC2CC2)CC[C@]314 [Naltrindole, reference compound]
- %Inh@MaxDose (DOR; MaxDose 100 nM): 98.8%
